According to ChEMBL document CHEMBL1130174, “Pyrrolidine-3-carboxylic acids as endothelin antagonists. 2. Sulfonamide-based ETA/ETB mixed antagonists” (J Med Chem, 1997):

Columns and labels:
Endothelin-1 receptor = biological target: T1, Endothelin-1 receptor (Rattus norvegicus, UniProt P26684); assay: Ability to displace endothelin ([125I]ET1) from endothelin A receptor derived from MMQ cells of rodent.; type: cell-based, Rodentia sp.
T1 sequence (P26684 whole entry): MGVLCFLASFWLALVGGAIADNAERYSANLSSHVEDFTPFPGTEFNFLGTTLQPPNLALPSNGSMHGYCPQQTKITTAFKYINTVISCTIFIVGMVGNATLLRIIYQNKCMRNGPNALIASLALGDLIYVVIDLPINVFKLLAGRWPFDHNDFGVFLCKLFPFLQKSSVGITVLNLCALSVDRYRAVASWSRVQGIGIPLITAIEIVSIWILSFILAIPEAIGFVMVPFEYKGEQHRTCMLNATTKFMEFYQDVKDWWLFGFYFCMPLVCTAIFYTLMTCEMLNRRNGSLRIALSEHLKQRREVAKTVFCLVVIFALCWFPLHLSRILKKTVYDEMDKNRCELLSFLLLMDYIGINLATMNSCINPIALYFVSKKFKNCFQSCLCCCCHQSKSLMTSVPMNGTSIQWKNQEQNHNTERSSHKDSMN

[1] = Ratio of endothelin A receptor and endothelin B receptor.
[2] = biological target: T2, Endothelin receptor type B (Sus scrofa, UniProt P35463); assay: Ability to displace endothelin ([125I]ET-3) from endothelin B receptor derived from cerebellar tissue of porcine.
T2 sequence (P35463 whole entry): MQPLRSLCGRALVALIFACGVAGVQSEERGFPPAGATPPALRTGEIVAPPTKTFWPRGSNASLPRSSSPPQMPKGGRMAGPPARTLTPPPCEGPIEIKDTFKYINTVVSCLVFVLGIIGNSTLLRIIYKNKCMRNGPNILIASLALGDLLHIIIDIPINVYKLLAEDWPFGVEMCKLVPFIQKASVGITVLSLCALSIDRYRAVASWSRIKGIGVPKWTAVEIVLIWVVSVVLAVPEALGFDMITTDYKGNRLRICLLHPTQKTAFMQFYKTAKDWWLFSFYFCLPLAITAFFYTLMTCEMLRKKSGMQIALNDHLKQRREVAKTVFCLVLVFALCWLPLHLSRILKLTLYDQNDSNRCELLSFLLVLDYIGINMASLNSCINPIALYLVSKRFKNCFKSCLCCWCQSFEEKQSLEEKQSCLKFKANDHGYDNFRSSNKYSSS

[3] = Half-life is obtained after intravenous dosing of rats.; type: ADME, organism-based; settings: rat, in vivo
Rattus norvegicus = assay: Total drug exposure is determined after oral dosing in rats.; type: ADME, organism-based; design: concentration or dose not given beside the values; settings: in vivo
[4] = Oral bioavailability in rat; type: ADME, organism-based; settings: in vivo
[5] = biological target: T3, Endothelin receptor type B (Homo sapiens, UniProt P24530); assay: Ability to block the ET-1-induced hydrolysis of inositol phosphate in Endothelin B receptor of chinese hamster ovary(CHO) cells.; type: functional
T3 sequence (P24530 whole entry): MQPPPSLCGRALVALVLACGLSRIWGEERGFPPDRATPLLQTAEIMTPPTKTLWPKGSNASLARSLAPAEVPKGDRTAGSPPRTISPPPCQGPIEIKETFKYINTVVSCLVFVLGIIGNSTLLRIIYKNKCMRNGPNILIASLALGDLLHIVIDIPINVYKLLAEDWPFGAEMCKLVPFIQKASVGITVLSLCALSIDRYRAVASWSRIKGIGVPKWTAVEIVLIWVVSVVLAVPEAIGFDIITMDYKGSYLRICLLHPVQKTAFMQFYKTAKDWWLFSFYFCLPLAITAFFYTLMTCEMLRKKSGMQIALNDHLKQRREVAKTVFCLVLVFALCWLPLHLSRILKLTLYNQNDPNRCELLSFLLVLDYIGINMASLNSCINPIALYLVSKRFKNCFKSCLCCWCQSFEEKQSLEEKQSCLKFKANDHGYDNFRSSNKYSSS

[6] = biological target: T3, Endothelin receptor type B; assay: Binding assay performed using human Endothelin B receptor (hETB) expressed in chinese hamster ovary cells(CHO); type: cell-based
[7] = Maximum drug concentration is determined after oral dosing in rats.; type: ADME, organism-based; design: route oral; settings: rat, in vivo
[8] = Half-life is obtained after oral dosing of rats.; type: ADME, organism-based; settings: rat, in vivo

| IC50 (Endothelin-1 receptor) | Ratio [1] | IC50 [2] | SMILES | other results |
| --- | --- | --- | --- | --- |
| 5.2 nM | 15 | 77 nM | CCCN(CCN1C[C@H](c2ccc3c(c2)OCO3)[C@@H](C(=O)O)[C@@H]1c1ccc(OC)cc1)S(=O)(=O)CCOC |  |
| 0.66 nM | 10 | 7 nM | CCCCCS(=O)(=O)N(CCC)CCN1C[C@H](c2ccc3c(c2)OCO3)[C@@H](C(=O)O)[C@@H]1c1ccc2c(c1)OCCO2 |  |
|  |  | 0.34 nM | CCCCCCS(=O)(=O)N(CCC)CCN1C[C@H](c2ccc3c(c2)OCO3)[C@@H](C(=O)O)[C@@H]1c1ccc(OC)c(F)c1 (stereo in doubt; 15c) | half-life [3]: 3.3 h; AUC (Rattus norvegicus): 2800 ng·h/mL; bioavailability [4]: 40%; IC50 [5]: 1.12 nM; IC50 [6]: 0.48 nM; Cmax [7]: 700 ng/mL; half-life [8]: 6.4 h |
|  |  | 34 nM | CCCN(CCN1C[C@H](c2ccc3c(c2)OCO3)[C@@H](C(=O)O)[C@@H]1c1ccc(OC)cc1)S(=O)(=O)Cc1ccccc1 |  |
| 0.53 nM | 120 | 66 nM | CCCN(CCN1C[C@H](c2ccc3c(c2)OCO3)[C@@H](C(=O)O)[C@@H]1c1ccc(OC)cc1)S(=O)(=O)c1ccc(OC)cc1 |  |
| 2 nM | 4.7 | 9.4 nM | CCCCS(=O)(=O)N(CCC)CCN1C[C@H](c2ccc3c(c2)OCO3)[C@@H](C(=O)O)[C@@H]1c1ccc(OC)cc1 |  |
|  |  | 0.85 nM | CCCCCS(=O)(=O)N(CCC)CCN1C[C@H](c2ccc3c(c2)OCO3)[C@@H](C(=O)O)[C@@H]1c1ccc(OC)c(F)c1 (stereo in doubt; 13e) |  |
| 0.62 nM | 8.4 | 5.2 nM | CCCCCS(=O)(=O)N(CCC)CCN1C[C@H](c2ccc3c(c2)OCO3)[C@@H](C(=O)O)[C@@H]1c1ccc(OCOC)cc1 |  |
| 1.6 nM | 22 | 36 nM | CCCN(CCN1C[C@H](c2ccc3c(c2)OCO3)[C@@H](C(=O)O)[C@@H]1c1ccc(OC)cc1)S(=O)(=O)CCC |  |
| 2 nM | 30 | 60 nM | CCCCN(CCN1C[C@H](c2ccc3c(c2)OCO3)[C@@H](C(=O)O)[C@@H]1c1ccc(OC)cc1)S(=O)(=O)CCC |  |
|  |  | 0.98 nM | CCCN(CCN1C[C@H](c2ccc3c(c2)OCO3)[C@@H](C(=O)O)[C@@H]1c1ccc(OC)c(F)c1)S(=O)(=O)CCCC(F)(F)F (stereo in doubt; 14f) |  |
|  |  | 0.32 nM | CCCN(CCN1C[C@H](c2ccc3c(c2)OCO3)[C@@H](C(=O)O)[C@@H]1c1ccc(OC)c(F)c1)S(=O)(=O)CCCC(F)(F)F (stereo in doubt; 15e) | half-life [3]: 4.3 h; AUC (Rattus norvegicus): 4300 ng·h/mL; bioavailability [4]: 25%; IC50 [5]: 1.46 nM; IC50 [6]: 0.2 nM; Cmax [7]: 1200 ng/mL; half-life [8]: 8.9 h |
|  |  |  | COc1ccccc1Oc1c(NS(=O)(=O)c2ccc(C(C)(C)C)cc2)nc(-c2ncccn2)nc1OCCO [BOSENTAN] | half-life [3]: 4 h; bioavailability [4]: 30% |
| 0.46 nM | 2.6 | 1.2 nM | CCCN(CCN1C[C@H](c2ccc3c(c2)OCO3)[C@@H](C(=O)O)[C@@H]1c1ccc(OC)c(F)c1)S(=O)(=O)CCC(C)C |  |
|  | 2.5 |  | CCCN(CCN1C[C@H](c2ccc3c(c2)OCO3)[C@@H](C(=O)O)[C@@H]1c1ccc(OC)c(F)c1)S(=O)(=O)CCCCl (stereo in doubt; 14e) [listing 1 of 2 here] |  |
| 2.3 nM | 32 | 73 nM | CCCCCS(=O)(=O)N(CCC)CCN1C[C@H](c2ccc3c(c2)OCO3)[C@@H](C(=O)O)[C@@H]1c1ccc(OC)c(OC)c1 |  |
| 0.4 nM |  | 1 nM | CCCN(CCN1C[C@H](c2ccc3c(c2)OCO3)[C@@H](C(=O)O)[C@@H]1c1ccc(OC)c(F)c1)S(=O)(=O)CCCCl (stereo in doubt; 14e) [listing 2 of 2 here] |  |
| 0.78 nM | 6.6 | 5.2 nM | CCCN(CCN1C[C@H](c2ccc3c(c2)OCO3)[C@@H](C(=O)O)[C@@H]1c1ccc(OC)cc1)S(=O)(=O)CC(C)C |  |
| 5.1 nM | 11 | 57 nM | CCCCCCCS(=O)(=O)N(CCC)CCN1C[C@H](c2ccc3c(c2)OCO3)[C@@H](C(=O)O)[C@@H]1c1ccc(OC)cc1 |  |

| IC50 (Endothelin-1 receptor) | Ratio [1] | IC50 [2] | SMILES | other results |
| --- | --- | --- | --- | --- |
| 1.2 nM | 79 | 95 nM | CCCN(CCN1C[C@H](c2ccc3c(c2)OCO3)[C@@H](C(=O)O)[C@@H]1c1ccc(OC)cc1)S(=O)(=O)CC |  |
| 6.3 nM | 6.5 | 41 nM | CCCN(CCN1C[C@H](c2ccc3c(c2)OCO3)[C@@H](C(=O)O)[C@@H]1c1ccc(OC)cc1)S(=O)(=O)c1ccc(Cl)cc1 |  |
| 1.3 nM | 2 | 2.6 nM | CCCCCS(=O)(=O)N(CCC)CCN1C[C@H](c2ccc3c(c2)OCO3)[C@@H](C(=O)O)[C@@H]1c1ccc(OCC)c(F)c1 |  |
| 0.21 nM | 7.6 | 1.6 nM | CCCN(CCN1C[C@H](c2ccc3c(c2)OCO3)[C@@H](C(=O)O)[C@@H]1c1ccc(OC)c(F)c1)S(=O)(=O)CC(C)C |  |
| 48 nM | 13 | 610 nM | CCCCCS(=O)(=O)N(CCC)CCN1C[C@H](c2ccc3c(c2)OCO3)[C@@H](C(=O)O)[C@@H]1c1ccc(OCCC)cc1 |  |
| 1.4 nM | 150 | 210 nM | CCCN(CCN1C[C@H](c2ccc3c(c2)OCO3)[C@@H](C(=O)O)[C@@H]1c1ccc(OC)cc1)S(=O)(=O)c1ccccc1 |  |
| 8.1 nM | 7.7 | 62 nM | CCCS(=O)(=O)N(CCN1C[C@H](c2ccc3c(c2)OCO3)[C@@H](C(=O)O)[C@@H]1c1ccc(OC)cc1)CC(C)C |  |
| 0.43 nM | 10 | 4.5 nM | CCCCCCS(=O)(=O)N(CCC)CCN1C[C@H](c2ccc3c(c2)OCO3)[C@@H](C(=O)O)[C@@H]1c1ccc(OC)cc1 |  |
| 2 nM | 3.1 | 6.3 nM | CCCN(CCN1C[C@H](c2ccc3c(c2)OCO3)[C@@H](C(=O)O)[C@@H]1c1ccc(OC)cc1)S(=O)(=O)CCCCl |  |
| 10 nM | 26 | 260 nM | CCCS(=O)(=O)N(C)CCN1C[C@H](c2ccc3c(c2)OCO3)[C@@H](C(=O)O)[C@@H]1c1ccc(OC)cc1 |  |
| 2.7 nM | 1.1 | 2.9 nM | CCCN(CCN1C[C@H](c2ccc3c(c2)OCO3)[C@@H](C(=O)O)[C@@H]1c1ccc(OC)c(F)c1)S(=O)(=O)Cc1ccccc1 |  |
|  |  | 1.5 nM | CCCCCCS(=O)(=O)N(CCC)CCN1C[C@H](c2ccc3c(c2)OCO3)[C@@H](C(=O)O)[C@@H]1c1ccc(OC)c(F)c1 (stereo in doubt; 14b) |  |
|  |  | 1 nM | CCCCS(=O)(=O)N(CCC)CCN1C[C@H](c2ccc3c(c2)OCO3)[C@@H](C(=O)O)[C@@H]1c1ccc(OC)c(F)c1 (stereo in doubt; 14a) |  |
| 8.3 nM | 10 | 85 nM | CCCN(CCN1C[C@H](c2ccc3c(c2)OCO3)[C@@H](C(=O)O)[C@@H]1c1ccc(OC)cc1)S(=O)(=O)c1ccc(C)cc1 |  |
|  |  |  | CCCCN(CCCC)C(=O)CN1C[C@H](c2ccc3c(c2)OCO3)[C@@H](C(=O)O)[C@@H]1c1ccc(OC)cc1 | bioavailability [4]: 70% |
| 20 nM | 43 | 850 nM | CCCCN(CCN1C[C@H](c2ccc3c(c2)OCO3)[C@@H](C(=O)O)[C@@H]1c1ccc(OC)cc1)C(=O)CCC |  |
| 18 nM | 3.8 | 68 nM | CCCCCS(=O)(=O)N(CCC)CCN1C[C@H](c2ccc3c(c2)OCO3)[C@@H](C(=O)O)[C@@H]1c1ccc(F)c(F)c1 |  |
| 0.57 nM | 7.2 | 4.1 nM | CCCCCS(=O)(=O)N(CCC)CCN1C[C@H](c2ccc3c(c2)OCO3)[C@@H](C(=O)O)[C@@H]1c1ccc(OC)cc1 |  |
